Our source for the IC50 values is patent US7504423B2, “α-amino acid derivatives and use thereof as medicines” (Mitsubishi Tanabe Pharma Corporation, priority 2003, dated 2009).

Molecules are shown by their SMILES.

The target of one assay is T1, Human plasma DPP-IV (Homo sapiens, UniProt P27487).
T1 construct: Human plasma DPP-IV; from tissue; host or cells: human plasma
The experiment in a line: Plasma DPP-IV inhibitory activity (fluorescence assay, Gly-Pro-MCA substrate), human plasma. The class given is biochemical. To be noted: human plasma (10-fold diluted), room temperature, 60 min. The method, then: (§1) (Plasma DPP-IV Inhibitory Activity)
(§2) The plasma DPP-IV inhibitory activity of human and rat was measured by the fluorescence assay method. Using Gly-Pro-MCA (Peptide Institute Inc.) as a DPP-IV specific fluorescent substrate, reaction solutions having the following compositions and containing test substances having various concentrations were incubated at room temperature for 60 min and the measured (SPECTRA FLUOR, TECAN) fluorescent intensity (Excitation 360 nm/Emission 465 nm) was taken as the DPP-IV activity.
(§3) As a buffer, 0.003% Brij-35-containing phosphate buffer (PBS, Sigma-Aldrich Co.) was used.
(§4) A reaction solution free of the test substance was used as a control.
(§5) The inhibitory rate of the test substance relative to the reaction of the control was calculated, and IC50 values were determined by logistic analysis. The IC50 values of the plasma DPP-IV inhibitory activity of the present invention as determined by the above method are shown in the following table.

The next assay addresses T2, Rat plasma DPP-IV (Rattus norvegicus, UniProt P14740).
T2 construct: Rat plasma DPP-IV; from tissue; host or cells: rat plasma
As to the kind of experiment: Plasma DPP-IV inhibitory activity (fluorescence assay, Gly-Pro-MCA substrate), rat plasma. The class given is biochemical. The following applies: rat plasma (10-fold diluted), room temperature, 60 min. The method, then: as §1, §2, §3, §4, §5

T2 sequence (P14740 38-767 limits assumed): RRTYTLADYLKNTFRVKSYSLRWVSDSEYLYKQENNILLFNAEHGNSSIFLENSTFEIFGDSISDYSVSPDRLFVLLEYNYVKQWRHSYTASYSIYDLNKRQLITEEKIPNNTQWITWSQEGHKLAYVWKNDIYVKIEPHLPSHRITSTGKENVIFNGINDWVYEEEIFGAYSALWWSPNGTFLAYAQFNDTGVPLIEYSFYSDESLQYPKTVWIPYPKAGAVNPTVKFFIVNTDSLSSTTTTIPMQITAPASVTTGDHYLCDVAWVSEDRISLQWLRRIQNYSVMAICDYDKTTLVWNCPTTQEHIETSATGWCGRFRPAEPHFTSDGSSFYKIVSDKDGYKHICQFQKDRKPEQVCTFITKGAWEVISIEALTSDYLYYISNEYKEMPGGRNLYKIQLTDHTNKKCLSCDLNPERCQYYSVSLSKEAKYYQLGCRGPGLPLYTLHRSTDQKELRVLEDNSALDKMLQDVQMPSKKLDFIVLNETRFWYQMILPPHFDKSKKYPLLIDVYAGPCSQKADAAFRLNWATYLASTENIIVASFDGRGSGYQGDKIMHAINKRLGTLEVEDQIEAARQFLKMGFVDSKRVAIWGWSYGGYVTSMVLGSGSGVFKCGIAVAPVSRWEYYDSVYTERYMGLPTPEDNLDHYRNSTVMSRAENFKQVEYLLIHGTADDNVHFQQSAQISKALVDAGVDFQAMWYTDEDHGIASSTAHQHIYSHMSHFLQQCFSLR
T1 sequence (P27487 39-766 limits assumed): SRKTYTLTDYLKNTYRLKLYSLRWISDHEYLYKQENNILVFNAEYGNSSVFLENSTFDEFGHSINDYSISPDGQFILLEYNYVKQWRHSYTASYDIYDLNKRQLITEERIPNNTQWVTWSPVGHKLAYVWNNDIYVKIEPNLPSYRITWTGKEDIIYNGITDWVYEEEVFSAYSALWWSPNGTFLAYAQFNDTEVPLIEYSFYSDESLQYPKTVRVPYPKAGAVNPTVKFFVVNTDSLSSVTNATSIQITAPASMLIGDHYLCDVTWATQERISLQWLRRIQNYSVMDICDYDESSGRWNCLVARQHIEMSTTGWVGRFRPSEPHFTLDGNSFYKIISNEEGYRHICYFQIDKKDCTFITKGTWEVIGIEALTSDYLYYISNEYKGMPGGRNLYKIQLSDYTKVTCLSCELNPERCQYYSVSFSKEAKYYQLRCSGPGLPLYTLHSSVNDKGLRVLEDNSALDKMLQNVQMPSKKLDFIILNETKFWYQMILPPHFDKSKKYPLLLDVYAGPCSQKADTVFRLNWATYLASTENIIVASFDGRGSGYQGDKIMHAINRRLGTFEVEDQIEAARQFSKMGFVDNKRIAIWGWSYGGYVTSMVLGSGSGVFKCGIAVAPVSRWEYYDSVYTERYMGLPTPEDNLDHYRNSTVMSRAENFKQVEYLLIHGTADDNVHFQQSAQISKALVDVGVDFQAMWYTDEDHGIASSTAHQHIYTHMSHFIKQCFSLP

Broadly, the IC50 is the midpoint of a concentration-inhibition curve. Higher therefore signals weaker potency in that assay. Turning to `N[C@H](C(=O)N1CCSC1)[C@H]1CC[C@@H](N2CCN(c3nc4ccccc4s3)CC2)CC1` [Example 14, 3-((S)-2-amino-2-{cis-4-[4-(2-benzothiazolyl)-1-piperazinyl]-1-cyclohexyl}acetyl)-1,3-thiazolidine], the results for the IC50 against Human plasma DPP-IV and against Rat plasma DPP-IV were 2.1 nM and 1.4 nM, respectively.

Turning to `N#Cc1ccc(N2CCN([C@H]3CC[C@@H]([C@H](N)C(=O)N4CCSC4)CC3)CC2)nc1` [Example 2, 3-((S)-2-amino-2-{cis-4-[4-(5-cyano-2-pyridyl)-1-piperazinyl]-1-cyclohexyl}acetyl)-1,3-thiazolidine], the figures for the half-inhibitory concentration (IC50) at Human plasma DPP-IV and against Rat plasma DPP-IV were 1.6 nM and 1.4 nM, respectively.
